In PubChem BioAssay AID320 (DTP/NCI, 2004) one finds T/C data, which are given here for 29 compounds.

“And” between values parts separate entries of the source, which are not always exact repeats. Equal values may be shown once. Inconclusive results and toxic doses are left out. *1 amine or outer side, *2 acyl side, *3 side chain or, on linkers, in order; H or OH if unused. Where a SMILES comes first, the peptide text is derived from it. Bridges are numbered along the chain shown (N, C = ends). Roman numbers before positions name the chains, in order. [ ]: non-standard residue; d: D form. Actinocin(9to1) = Cc1c2oc3c(C)ccc(C(=O)[*:1])c3nc-2c(C(=O)[*:2])c(N)c1=O; aThr = C[C@H](O)[C@H](N)C(=O)O; NMeV = CN[C@H](C(=O)O)C(C)C; Sar = CNCC(=O)O

The assay has as its system BDF1 mice, P329 reticulum cell sarcoma ip, survival T/C. Nature of the assay: NCI In Vivo Anticancer Drug Screen. Data for tumor model P329 Reticulum Cell Sarcoma (intraperitoneal) in B6D2F1 (BDF1) mice. The settings on record: endpoint: median survival time, higher = longer survival. As for the experimental part: The antitumor activity of compounds was measured in mice bearing transplantable tumors. Survival or tumor size were measured and the results are expressed as the measurement made in the treated group (T) divided by the measurement made in the vehicle treated control group (C). The tumor model used in this assay is P329 Reticulum Cell Sarcoma (intraperitoneal) in B6D2F1 (BDF1) mice

Where [1] appears, read: dose: 80.0 mg/kg/injection, schedule: Q01DX010 (ip), vehicle: saline.
Where [2] appears, read: dose: 3.13 mg/kg/injection, schedule: Q01DX010 (ip), vehicle: saline.
Where [3] appears, read: dose: 6.25 mg/kg/injection, schedule: Q01DX010 (ip), vehicle: saline.
Where [4] appears, read: dose: 12.5 mg/kg/injection, schedule: Q01DX010 (ip), vehicle: saline.
Where [5] appears, read: dose: 25.0 mg/kg/injection, schedule: Q01DX010 (ip), vehicle: saline.
[6] abbreviates: dose: 5.0 mg/kg/injection, schedule: Q01DX010 (ip), vehicle: saline.
The mark [7] stands for this setting: dose: 10.0 mg/kg/injection, schedule: Q01DX010 (ip), vehicle: saline.
The mark [8] stands for this setting: dose: 50.0 mg/kg/injection, schedule: Q01DX010 (ip), vehicle: saline.
Setting [9] is: dose: 100.0 mg/kg/injection, schedule: Q01DX010 (ip), vehicle: saline.
Where [10] appears, read: dose: 200.0 mg/kg/injection, schedule: Q01DX010 (ip), vehicle: saline.
The mark [11] stands for this setting: dose: 12.5 mg/kg/injection, schedule: Q01DX010 (sc), vehicle: steriod suspending solution.
Where [12] appears, read: dose: 31.3 mg/kg/injection, schedule: Q01DX010 (ip), vehicle: saline.
Where [13] appears, read: dose: 2.5 mg/kg/injection, schedule: Q01DX010 (ip), vehicle: saline.
[14] abbreviates: dose: 20.0 mg/kg/injection, schedule: Q01DX010 (ip), vehicle: saline.
Where [15] appears, read: dose: 25.0 mg/kg/injection, schedule: Q01DX010 (sc), vehicle: steriod suspending solution.
[16] abbreviates: dose: 50.0 mg/kg/injection, schedule: Q01DX010 (sc), vehicle: steriod suspending solution.

For the compound `Nc1nc(=S)c2ncn(C3OC(CO)C(O)C3O)c2[nH]1` (stereo not drawn), the T/C (dose: 4.0 mg/kg/injection, schedule: Q01DX010 (ip), vehicle: saline) is 110 % of control and the T/C (dose: 16.0 mg/kg/injection, schedule: Q01DX010 (ip), vehicle: saline) is 90 % of control.

On to `CN(C)c1ccc(Nc2c3ccccc3nc3ccccc23)cc1`, for which the T/C is 121 % of control (dose: 36.0 mg/kg/injection, schedule: Q01DX010 (ip), vehicle: saline); 157 % of control under setting [1]; 153 % of control (dose: 120.0 mg/kg/injection, schedule: Q01DX010 (ip), vehicle: saline).

As for `Cc1c2oc3c(C)ccc(C(=O)N[C@@H]4C(=O)N[C@H](C(C)C)C(=O)N5CCC[C@H]5C(=O)N(C)CC(=O)N(C)[C@@H](C(C)C)C(=O)O[C@H]4C)c3nc-2c(C(=O)N[C@@H]2C(=O)N[C@H](C(C)C)C(=O)N3CCC[C@H]3C(=O)N(C)CC(=O)N(C)[C@@H](C(C)C)C(=O)O[C@H]2C)c(N)c1=O` (I: [aThr][dV]P[Sar][NMeV] / II: [aThr][dV]P[Sar][NMeV]; ester I:1-I:C, II:1-II:C; linker I:N-II:N via Actinocin(9to1)), the T/C reads like this: (dose: 12.5 micrograms/kg/injection, schedule: Q01DX010 (ip), vehicle: other) 115 % of control and 120 % of control; (dose: 50.0 micrograms/kg/injection, schedule: Q01DX010 (ip), vehicle: other) 166 % of control.

Regarding `C[C@H]1C(=O)O[C@@H]2CCN3CC=C(COC(=O)[C@](C)(O)[C@@]1(C)O)[C@H]23`, the T/C is, setting by setting: under setting [2], 106 % of control and 107 % of control; under setting [3], 103 % of control and 107 % of control; under setting [4], 103 % of control; under setting [5], 100 % of control and 103 % of control.

`NC(Cc1ccc(N(CCCl)CCCl)cc1)C(=O)O` (stereo not drawn): the T/C under setting [6] was 153 % of control and the T/C under setting [7] was 175 % of control.

For the compound `C#CCN(C)Cc1ccccc1`, the T/C reads like this: under setting [5], 100 % of control; under setting [8], 100 % of control; under setting [9], 93 % of control; under setting [10], 106 % of control.

With `CS(=O)(=O)OCC(O)C(O)C(O)C(O)COS(C)(=O)=O` (stereo not drawn), the T/C is 100 % of control under setting [5]; 100 % of control and 103 % of control under setting [8]; 107 % of control under setting [9]; 121 % of control and 123 % of control under setting [10].

Consider `Nc1nc2n[nH]nc2c(=O)[nH]1`, for which the T/C was 153 % of control (dose: 100.0 mg/kg/injection, schedule: Q01DX010 (ip), vehicle: alkali diluted with saline) and 150 % of control (dose: 200.0 mg/kg/injection, schedule: Q01DX010 (ip), vehicle: alkali diluted with saline).

Consider `N=[N+]=CC(=O)OCC(N)C(=O)O` (stereo not drawn), for which the T/C was 153 % of control and 162 % of control under setting [3]; 175 % of control and 176 % of control under setting [4]; 87 % of control and 92 % of control under setting [5].

For the compound `S=P(N1CC1)(N1CC1)N1CC1`, the T/C (dose: 0.75 mg/kg/injection, schedule: Q01DX010 (ip), vehicle: saline) is 103 % of control and 107 % of control; the T/C (dose: 1.5 mg/kg/injection, schedule: Q01DX010 (ip), vehicle: saline) is 111 % of control; the T/C (dose: 6.0 mg/kg/injection, schedule: Q01DX010 (ip), vehicle: saline) was 115 % of control and 123 % of control.

For the compound `Clc1ccc(C(c2ccccc2Cl)C(Cl)Cl)cc1` (stereo not drawn), the T/C is 100 % of control (dose: 62.5 mg/kg/injection, schedule: Q01DX010 (sc), vehicle: steriod suspending solution); 100 % of control (dose: 125.0 mg/kg/injection, schedule: Q01DX010 (sc), vehicle: steriod suspending solution); 107 % of control (dose: 250.0 mg/kg/injection, schedule: Q01DX010 (sc), vehicle: steriod suspending solution); 103 % of control (dose: 500.0 mg/kg/injection, schedule: Q01DX010 (sc), vehicle: steriod suspending solution).

With `O=NN(CCCl)C(=O)NCCCl`, the T/C reads like this: under setting [2], 158 % of control; under setting [3], 157 % of control and 158 % of control; under setting [4], 103 % of control.

On to `C[C@]12C=CC(=O)C=C1CC[C@@H]1[C@@H]2C(=O)C[C@@]2(C)[C@H]1CC[C@]2(O)C(=O)CO`, for which the T/C under setting [11] is 95 % of control and 104 % of control.

With `O[C@H](CN1CC1)[C@@H](O)CN1CC1`, the T/C by setting is: (dose: 62.5 micrograms/kg/injection, schedule: Q01DX010 (ip), vehicle: saline) 106 % of control and 121 % of control; (dose: 125.0 micrograms/kg/injection, schedule: Q01DX010 (ip), vehicle: saline) 123 % of control; (dose: 250.0 micrograms/kg/injection, schedule: Q01DX010 (ip), vehicle: saline) 167 % of control; (dose: 500.0 micrograms/kg/injection, schedule: Q01DX010 (ip), vehicle: saline) 166 % of control.

For `CCCSc1ncnc2nc[nH]c12`, the T/C by setting is: under setting [12], 115 % of control and 123 % of control; (dose: 62.5 mg/kg/injection, schedule: Q01DX010 (ip), vehicle: saline) 107 % of control; (dose: 125.0 mg/kg/injection, schedule: Q01DX010 (ip), vehicle: saline) 107 % of control.

Consider `CC(=O)Nc1ccc2nc3ccc(NC(C)=O)cc3[n+](-c3ccccc3)c2c1`, for which the T/C is, setting by setting: under setting [5], 121 % of control; under setting [8], 114 % of control.

As to `Cn1cnc([N+](=O)[O-])c1Sc1nc(N)nc2nc[nH]c12`, the T/C is, setting by setting: under setting [13], 150 % of control; under setting [7], 100 % of control.

On to `S=P(N1CCOCC1)(N1CC1)N1CC1`, for which the T/C was 100 % of control under setting [13]; 100 % of control and 107 % of control under setting [6]; 100 % of control and 119 % of control under setting [7]; 107 % of control and 115 % of control under setting [14].

As for `CCN(CCNc1ccc(C)c2sc3cc(Cl)ccc3c(=O)c12)CC(C)O` (stereo not drawn), the T/C under setting [12] is 100 % of control and the T/C (dose: 250.0 mg/kg/injection, schedule: Q01DX010 (ip), vehicle: saline) was 92 % of control.

In the case of `S=c1nc[nH]c2nc[nH]c12`, the T/C was 150 % of control (dose: 20.0 mg/kg/injection, schedule: Q01DX010 (ip), vehicle: alkali diluted with saline) and 158 % of control (dose: 80.0 mg/kg/injection, schedule: Q01DX010 (ip), vehicle: alkali diluted with saline).

In the case of `C[C@]12C=CC(=O)C=C1CC[C@@H]1[C@@H]2[C@@H](O)C[C@@]2(C)[C@H]1CC[C@]2(O)C(=O)CO`, the T/C reads like this: under setting [11], 100 % of control and 103 % of control; under setting [15], 100 % of control; under setting [16], 100 % of control; (dose: 100.0 mg/kg/injection, schedule: Q01DX010 (sc), vehicle: steriod suspending solution) 100 % of control.

As for `Cn1c(N)nc2nc[nH]c2c1=S`, the T/C is, setting by setting: under setting [7], 100 % of control; under setting [14], 106 % of control; (dose: 40.0 mg/kg/injection, schedule: Q01DX010 (ip), vehicle: saline) 100 % of control; under setting [1], 106 % of control.

In the case of `CSc1ncnc2nc[nH]c12`, the T/C under setting [5] was 115 % of control and 123 % of control.

Regarding `Oc1cc(CN(CCCl)CCCl)c(O)cc1CN(CCCl)CCCl`, the T/C is 103 % of control and 114 % of control (dose: 0.63 mg/kg/injection, schedule: Q01DX010 (ip), vehicle: saline); 114 % of control (dose: 1.25 mg/kg/injection, schedule: Q01DX010 (ip), vehicle: saline); 117 % of control under setting [13]; 96 % of control and 107 % of control under setting [6].

Take `Nc1nc(N)c2nc(CNc3ccc(C(=O)NC(CCC(=O)O)C(=O)O)cc3)cnc2n1` (stereo not drawn): the T/C is 111 % of control (dose: 0.05 mg/kg/injection, schedule: Q01DX010 (ip), vehicle: other); 107 % of control (dose: 0.1 mg/kg/injection, schedule: Q01DX010 (ip), vehicle: other); 123 % of control (dose: 0.2 mg/kg/injection, schedule: Q01DX010 (ip), vehicle: other).

As to `COS(C)(=O)=O`, the T/C under setting [4] was 100 % of control, the T/C under setting [5] is 93 % of control and the T/C under setting [8] is 116 % of control.

For `CC(=O)O[C@]1(C(C)=O)CC[C@H]2[C@@H]3C[C@H](C)C4=CC(=O)C=C[C@]4(C)[C@@]3(F)[C@@H](O)C[C@@]21C`, the T/C was 93 % of control under setting [11], 93 % of control under setting [15] and 93 % of control under setting [16].

`O=c1[nH]cc(F)c(=O)[nH]1`: the T/C reads like this: under setting [6], 123 % of control; under setting [14], 161 % of control and 162 % of control.

As for `CN(Cc1cnc2nc(N)nc(N)c2n1)c1ccc(C(=O)N[C@@H](CCC(=O)O)C(=O)O)cc1`, the T/C is 101 % of control and 106 % of control (dose: 0.19 mg/kg/injection, schedule: Q01DX010 (ip), vehicle: other); 100 % of control and 110 % of control and 116 % of control (dose: 0.38 mg/kg/injection, schedule: Q01DX010 (ip), vehicle: other); 114 % of control (dose: 0.75 mg/kg/injection, schedule: Q01DX010 (ip), vehicle: other).
